This assay has as its target HDAC2 (Homo sapiens, UniProt Q92769). The assay can be described thus: HDAC2 fluorescence inhibition assay (tBoc-Lys(Ac)-AMC).

Sequence of HDAC2 (Q92769 with tags, fused parts or gaps): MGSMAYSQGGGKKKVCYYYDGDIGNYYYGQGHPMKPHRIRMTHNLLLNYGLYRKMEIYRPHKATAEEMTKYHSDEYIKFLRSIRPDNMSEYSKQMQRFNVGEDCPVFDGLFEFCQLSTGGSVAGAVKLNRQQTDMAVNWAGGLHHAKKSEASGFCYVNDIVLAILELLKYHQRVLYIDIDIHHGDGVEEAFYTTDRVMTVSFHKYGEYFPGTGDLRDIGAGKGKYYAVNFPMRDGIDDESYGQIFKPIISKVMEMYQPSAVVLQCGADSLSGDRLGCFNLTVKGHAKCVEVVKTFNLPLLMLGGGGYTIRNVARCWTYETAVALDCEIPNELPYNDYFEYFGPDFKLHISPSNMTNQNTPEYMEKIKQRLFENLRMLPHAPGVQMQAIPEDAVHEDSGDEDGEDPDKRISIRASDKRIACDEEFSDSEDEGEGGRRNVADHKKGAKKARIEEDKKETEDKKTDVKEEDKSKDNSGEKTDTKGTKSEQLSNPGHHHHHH

As for `Nc1ccccc1NC(=O)c1ccc(Cn2c(=O)ncc3ccccc32)cc1` [Example 8, N-(2-aminophenyl)-4-((2-oxoquinazolin-1(2H),-yl)methyl)benzamide], the IC50 fell in the range of 100 to 500 nM.

For the origin of these results see patent US7642253B2, “Histone deacetylase inhibitors” (Takeda San Diego, Inc., priority 2005, dated 2010).
